Data as given in patent US20260226062A1, “COMPOSITIONS USEFUL FOR MODULATING SPLICING” (Skyhawk Therapeutics, Inc., priority 2023, published 2026).

Each compound was assayed on ATXN3 pre-mRNA (assay: ATXN3 Quantitative Splicing Assay (qPCR, E4E5 primers/probe detecting transcripts containing exon 4)). Conditions: Human neuroblastoma SK-N-MC cells, 24 h treatment, qPCR of transcripts containing exon 4; read-out: ATXN3 Potency - Splicing: ATXN3 E4E5 IC50.
Format: cell-based
Procedure: Human neuroblastoma SK-N-MC cells were plated in 384-well plates at 20,000 cells/well. Twenty-four hours after plating, cells were treated with compounds for 24 h at appropriate concentrations ranging from 30 μM to 0.6 nM (0.3% DMSO). Treated cells were lysed in 15 μL of lysis buffer, and cDNA was synthesized using the Fast Advanced Cells-to-Ct kit. Two μL of each cDNA was used in qPCR reactions to confirm the exon 4 skipped transcripts of ATXN3. A second set of primers/probe E4E5 was used to detect the transcripts containing exon 4. The third set of primers/probe E8E9 was used to detect total gene level of ATXN3. The qPCR reactions were prepared in 384-well plates in 10 μL volume, using TaqMan™ Fast Advanced Master Mix with primers and probes shown in the table below. Reactions were run in a Quant Studio 6 qPCR instrument with default settings.
The primers and probes are listed below in Table 3.

C[C@H](F)[C@H](N)Cc1cc2c(NCc3ncco3)nc(Cl)nn2c1Cl [Compound 6, 6-((2R,3S)-2-amino-3-fluorobutyl)-2,7-dichloro-N-(oxazol-2-ylmethyl)pyrrolo[2,1-f][1,2,4]triazin-4-amine] and C[C@H](F)[C@H](N)Cc1cc2c(NCc3ncco3)nc(Cl)nn2c1Br [Compound 1, 6-((2R,3S)-2-amino-3-fluorobutyl)-7-bromo-2-chloro-N-(oxazol-2-ylmethyl)pyrrolo[2,1-f][1,2,4]triazin-4-amine] fall in the same range of IC50: 101 to 500 nM for the first, 101 to 500 nM for the second.

C[C@H](F)[C@H](N)Cc1cc2c(NCc3nccs3)nc(Cl)nn2c1Cl [Compound 5, 6-((2R,3S)-2-amino-3-fluorobutyl)-2,7-dichloro-N-(thiazol-2-ylmethyl)pyrrolo[2,1-f][1,2,4]triazin-4-amine] and C[C@H](F)[C@H](N)Cc1cc2c(NCc3nccs3)nc(Cl)nn2c1Br [Compound 3, 6-((2R,3S)-2-amino-3-fluorobutyl)-7-bromo-2-chloro-N-(thiazol-2-ylmethyl)pyrrolo[2,1-f][1,2,4]triazin-4-amine] fall in the same range of IC50: 101 to 500 nM for the first, 101 to 500 nM for the second.

Compared with Cc1c(C[C@@H](N)[C@H](C)F)cc2c(NCc3ccon3)nc(Cl)nn12 [Compound 9, 6-((2R,3S)-2-amino-3-fluorobutyl)-2-chloro-N-(isoxazol-3-ylmethyl)-7-methylpyrrolo[2,1-f][1,2,4]triazin-4-amine], C[C@H](F)[C@H](N)Cc1cc2c(NCc3ccon3)nc(Cl)nn2c1Br [Compound 7, 6-((2R,3S)-2-amino-3-fluorobutyl)-7-bromo-2-chloro-N-(isoxazol-3-ylmethyl)pyrrolo[2,1-f][1,2,4]triazin-4-amine] is lower in IC50: 501 to 5000 nM for the first, 101 to 500 nM for the second.

First: C[C@H](F)[C@H](N)Cc1cc2c(NCc3ccsn3)nc(Cl)nn2c1Br [Compound 8, 6-((2R,3S)-2-amino-3-fluorobutyl)-7-bromo-2-chloro-N-(isothiazol-3-ylmethyl)pyrrolo[2,1-f][1,2,4]triazin-4-amine]
Second: Cc1c(C[C@@H](N)[C@H](C)F)cc2c(NCc3ccsn3)nc(Cl)nn12 [Compound 10, 6-((2R,3S)-2-amino-3-fluorobutyl)-2-chloro-N-(isothiazol-3-ylmethyl)-7-methylpyrrolo[2,1-f][1,2,4]triazin-4-amine]
The IC50 of the first is lower: 0.01 to 100 nM for the first, 101 to 500 nM for the second. The first is the more potent here.

First: Cc1c(C[C@@H](N)[C@H](C)F)cc2c(NCc3ncco3)nc(Cl)nn12 [Compound 2, 6-((2R,3S)-2-amino-3-fluorobutyl)-2-chloro-7-methyl-N-(oxazol-2-ylmethyl)pyrrolo[2,1-f][1,2,4]triazin-4-amine]
Second: Cc1c(C[C@@H](N)[C@H](C)F)cc2c(NCc3nccs3)nc(Cl)nn12 [Compound 4, 6-((2R,3S)-2-amino-3-fluorobutyl)-2-chloro-7-methyl-N-(thiazol-2-ylmethyl)pyrrolo[2,1-f][1,2,4]triazin-4-amine]
The IC50 of the first is higher: 501 to 5000 nM for the first, 101 to 500 nM for the second.
